Test results as given in US12581252B2, “Substituted pyrrolo[3,4-b]pyridines as PI3K-α inhibitors” (Relay Therapeutics, Inc., priority 2020, dated 2026).
pIC50: −log10 of the molar value.

How the values were obtained:
cells = conditions: Homo sapiens, MCF-10A, read-out: MCF10A IC50
H1047R PIK3CA enzyme = H1047R PIK3CA enzyme (Homo sapiens, UniProt P42336, H1047R); experiment: ADP-Glo Biochemical PIK3CA Kinase Assay
Chain of H1047R PIK3CA enzyme (P42336 whole entry H1047R): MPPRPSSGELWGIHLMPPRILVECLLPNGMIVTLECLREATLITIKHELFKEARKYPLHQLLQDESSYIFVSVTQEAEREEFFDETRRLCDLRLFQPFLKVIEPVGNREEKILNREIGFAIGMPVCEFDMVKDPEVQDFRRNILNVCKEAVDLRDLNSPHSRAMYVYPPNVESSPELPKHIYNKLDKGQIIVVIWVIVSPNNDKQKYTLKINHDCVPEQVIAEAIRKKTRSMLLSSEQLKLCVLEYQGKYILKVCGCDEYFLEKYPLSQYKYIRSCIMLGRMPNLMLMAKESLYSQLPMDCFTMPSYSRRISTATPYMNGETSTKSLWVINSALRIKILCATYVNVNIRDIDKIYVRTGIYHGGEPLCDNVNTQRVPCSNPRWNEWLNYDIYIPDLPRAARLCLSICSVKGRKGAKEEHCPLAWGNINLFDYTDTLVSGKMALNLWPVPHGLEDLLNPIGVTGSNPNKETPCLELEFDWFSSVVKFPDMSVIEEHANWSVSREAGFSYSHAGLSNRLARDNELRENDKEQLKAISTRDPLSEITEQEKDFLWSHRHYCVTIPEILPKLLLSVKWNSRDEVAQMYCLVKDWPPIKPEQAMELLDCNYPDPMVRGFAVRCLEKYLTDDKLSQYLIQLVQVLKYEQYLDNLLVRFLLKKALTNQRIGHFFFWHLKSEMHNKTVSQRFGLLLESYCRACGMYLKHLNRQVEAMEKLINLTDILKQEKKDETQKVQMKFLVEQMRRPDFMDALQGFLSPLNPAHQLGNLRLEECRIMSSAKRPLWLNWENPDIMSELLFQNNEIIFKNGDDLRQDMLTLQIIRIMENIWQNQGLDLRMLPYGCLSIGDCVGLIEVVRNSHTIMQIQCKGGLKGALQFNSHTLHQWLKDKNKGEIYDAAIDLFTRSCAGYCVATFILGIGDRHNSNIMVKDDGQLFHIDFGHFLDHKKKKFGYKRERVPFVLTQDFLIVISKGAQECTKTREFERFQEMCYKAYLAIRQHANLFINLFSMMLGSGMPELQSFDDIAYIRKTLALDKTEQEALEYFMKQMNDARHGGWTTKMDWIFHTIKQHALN
Chain of H1047R PIK3CA enzyme (P27986 whole entry partner): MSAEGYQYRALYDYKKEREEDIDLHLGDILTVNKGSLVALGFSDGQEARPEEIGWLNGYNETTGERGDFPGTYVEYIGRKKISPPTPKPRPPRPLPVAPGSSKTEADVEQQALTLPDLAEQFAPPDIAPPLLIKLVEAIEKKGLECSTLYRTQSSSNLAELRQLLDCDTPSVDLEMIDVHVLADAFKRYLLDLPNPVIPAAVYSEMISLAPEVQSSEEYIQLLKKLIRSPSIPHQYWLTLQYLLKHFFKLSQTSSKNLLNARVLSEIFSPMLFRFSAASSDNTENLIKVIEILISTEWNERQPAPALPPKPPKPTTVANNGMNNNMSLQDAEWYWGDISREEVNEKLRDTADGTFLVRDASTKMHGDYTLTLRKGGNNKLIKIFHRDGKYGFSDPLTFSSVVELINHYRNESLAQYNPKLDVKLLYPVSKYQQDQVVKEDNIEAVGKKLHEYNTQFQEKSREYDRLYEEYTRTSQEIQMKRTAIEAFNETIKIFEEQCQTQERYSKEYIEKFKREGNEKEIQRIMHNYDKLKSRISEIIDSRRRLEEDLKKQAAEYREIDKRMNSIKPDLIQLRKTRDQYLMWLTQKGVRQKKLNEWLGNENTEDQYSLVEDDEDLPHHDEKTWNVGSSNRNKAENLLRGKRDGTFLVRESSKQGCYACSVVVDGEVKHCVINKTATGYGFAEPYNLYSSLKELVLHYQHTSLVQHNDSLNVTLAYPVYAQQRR

Structure (SMILES)	pIC50 (cells)	pIC50 (H1047R PIK3CA enzyme)
O=C(Nc1cc(NC2=NCC(C(F)(F)F)O2)cc2c1C(c1cc(F)ccc1Cl)NC2=O)c1cc(F)cc(C(F)(F)F)c1 (stereo not drawn) [Compound I-2297]	5.30 to 6.00	≥ 7.00
O=C1N[C@@H](c2cc(F)ccc2Cl)c2c(NC(=O)N3C[C@@H](O)c4cc(F)c(F)cc43)cccc21 (single isomer, unassigned) [Compound I-2293]	> 6.00	≥ 7.00
O=C(Nc1cc(OCCO)cc2c1C(c1cc(F)ccc1Cl)NC2=O)c1cc(F)cc(C(F)(F)F)c1 (stereo not drawn) [Compound I-1064]	> 6.00	≥ 7.00
CC(=O)Nc1cc(NC(=O)c2csc3ccccc23)c2c(c1)C(=O)NC2c1ccccc1C (stereo not drawn) [Compound I-52]	> 6.00	≥ 7.00
N#CCCc1cc(NC(=O)N2C[C@H](O)c3cc(F)ccc32)c2c(c1)C(=O)N[C@H]2c1cc(F)ccc1Cl (single isomer, unassigned) [Compound I-2346]	5.30 to 6.00	≥ 7.00
O=C(Nc1cc(NC2=NC(C(F)(F)F)CO2)cc2c1C(c1cc(F)ccc1Cl)NC2=O)c1cc(F)cc(C(F)(F)F)c1 (stereo not drawn) [Compound I-2360]	5.00 to 5.30	≥ 7.00
Cn1nccc1CNc1cc(NC(=O)c2cc(F)cc(C(F)(F)F)c2)c2c(c1)C(=O)NC2c1cc(F)ccc1Cl (stereo not drawn) [Compound I-1082]	> 6.00	≥ 7.00
Nc1ncc(-c2cc(NC(=O)c3cc(F)cc(C(F)(F)F)c3)c3c(c2)C(=O)N[C@@H]3c2cc(F)ccc2Cl)cn1 (stereo in doubt) [Compound I-1003]	> 6.00	≥ 7.00
Cc1ccccc1C1NC(=O)c2cccc(NC(=O)c3csc4ccccc34)c21 (stereo not drawn) [Compound I-1, N-(1-Oxo-3-(o-tolyl)isoindolin-4-yl)benzo[b]thiophene-3-carboxamide]	5.30 to 6.00	6.30 to 7.00
O=C1N[C@H](c2cc(F)ccc2Cl)c2c(NC(=O)N3C[C@](O)(C(F)F)c4cc(F)ccc43)cccc21 (single isomer, unassigned) [Compound I-2558]	> 6.00	≥ 7.00
O=C1N[C@@H](c2cc(F)ccc2Cl)c2c(NC(=O)N3CCc4cc(F)ccc43)cc(-c3cnn(C(F)F)c3)cc21 (single isomer, unassigned) [Compound I-2357]	> 6.00	≥ 7.00
O=C1NC(c2cc(F)ccc2Cl)c2c(NC(=O)N3CCc4ccccc43)cccc21 (stereo not drawn) [Compound I-2479]	5.30 to 6.00	≥ 7.00
N#CCc1ccc(NC(=O)N2C[C@](O)(C(F)(F)F)c3cc(F)ccc32)c2c1C(=O)N[C@H]2c1cc(F)ccc1Cl (single isomer, unassigned) [Compound I-2614]	> 6.00	≥ 7.00
COCc1cc(NC(=O)c2cc(F)cc(C(F)(F)F)c2)c2c(c1)C(=O)N[C@H]2c1cc(F)ccc1Cl [Compound I-691]	> 6.00	≥ 7.00
N#Cc1ccc(-c2cc(NC(=O)c3cc(F)cc(C(F)(F)F)c3)c3c(c2)C(=O)NC3c2cc(F)ccc2Cl)cn1 (stereo not drawn) [Compound I-928]	> 6.00	≥ 7.00
C[S+]([O-])Cc1cc(NC(=O)c2cc(F)cc(C(F)(F)F)c2)c2c(c1)C(=O)NC2c1cc(F)ccc1Cl (stereo not drawn) [Compound I-962]	> 6.00	≥ 7.00
O=C1NC(c2cc(F)ccc2Cl)c2c(NC(=O)N3CC(O)c4ccc(Cl)cc43)cccc21 (mixture of isomers) [Compound I-2464]	5.00 to 5.30	≥ 7.00
CC(C)(O)Cc1cc(NC(=O)c2cc(F)cc(Cl)c2)c2c(c1)C(=O)N[C@H]2c1cc(F)ccc1Cl [Compound I-1080]	> 6.00	≥ 7.00
Cn1cc(-c2cc(NC(=O)c3cc(F)cc(C(F)(F)F)c3)c3c(c2)C(=O)NC3c2cc(F)ccc2Cl)cn1 (stereo not drawn) [Compound I-811]	> 6.00	≥ 7.00
O=C1NC(c2cc(F)ccc2C(F)F)c2c(NC(=O)N3CC(O)c4cc(F)ccc43)cc(Br)cc21 (stereo not drawn) [Compound I-2257]	5.30 to 6.00	≥ 7.00
O=C(Nc1cc(-c2ncc[nH]2)cc2c1[C@H](c1cc(F)ccc1Cl)NC2=O)c1cc(F)cc(C(F)(F)F)c1 [Compound I-919]	> 6.00	≥ 7.00
O=C1NC(c2cc(F)ccc2Cl)c2c(NC(=O)N3CC(O)(C(F)(F)F)c4cc(F)ccc43)cc(F)cc21 (stereo not drawn) [Compound I-2623]	> 6.00	≥ 7.00
Cn1cc(-c2cc(NC(=O)c3cc(F)cc(C(F)(F)F)c3)c3c(c2)C(=O)NC3c2cc(F)ccc2Cl)ncc1=O (stereo not drawn) [Compound I-1016]	> 6.00	≥ 7.00
O=C(Nc1cc(-n2ccccc2=O)cc2c1C(c1cc(F)ccc1Cl)NC2=O)c1cc(F)cc(C(F)(F)F)c1 (stereo not drawn) [Compound I-2192]	5.30 to 6.00	≥ 7.00
O=C(Nc1cc(-c2cnc3ncnn3c2)cc2c1[C@H](c1cc(F)ccc1Cl)NC2=O)c1cc(F)cc(C(F)(F)F)c1 [Compound I-1024]	> 6.00	≥ 7.00
Cc1cnccc1-c1cc(NC(=O)c2cc(F)cc(C(F)(F)F)c2)c2c(c1)C(=O)N[C@H]2c1cc(F)ccc1Cl (stereo in doubt) [Compound I-1010]	> 6.00	≥ 7.00

Structure (SMILES)	pIC50 (cells)	pIC50 (H1047R PIK3CA enzyme)
Cc1ccccc1[C@@H]1NC(=O)c2cccc(NC(=O)c3csc4ccccc34)c21 [Compound I-5]	5.30 to 6.00	≥ 7.00
O=C1NC(c2cc(F)ccc2Cl)c2c(NC(=O)c3nsc4ccccc34)cccc21 (stereo not drawn) [Compound I-83]	> 6.00	≥ 7.00
NCc1cc(NC(=O)N2C[C@@](O)(C(F)F)c3cc(F)ccc32)c2c(c1)C(=O)N[C@@H]2c1cc(F)ccc1Cl (single isomer, unassigned) [Compound I-2694]	5.30 to 6.00	≥ 7.00
O=C(Nc1cc(-c2ccc3c(c2)OCCO3)cc2c1C(c1cc(F)ccc1Cl)NC2=O)c1cc(F)cc(C(F)(F)F)c1 (stereo not drawn) [Compound I-932]	5.30 to 6.00	6.30 to 7.00
O=C1Cc2ccc(-c3cc(NC(=O)c4cc(F)cc(C(F)(F)F)c4)c4c(c3)C(=O)NC4c3cc(F)ccc3Cl)cc2N1 (stereo not drawn) [Compound I-982]	> 6.00	≥ 7.00
NCc1cc(NC(=O)N2CC(O)(C(F)F)c3cc(F)ccc32)c2c(c1)C(=O)NC2c1cc(F)ccc1Cl (stereo not drawn) [Compound I-2597]	4.44 to 5.00	≥ 7.00
Cn1ccc(-c2cc(NC(=O)c3cc(F)cc(C(F)(F)F)c3)c3c(c2)C(=O)N[C@@H]3c2cc(F)ccc2Cl)cc1=O (stereo in doubt) [Compound I-1002]	> 6.00	≥ 7.00
CN(C)c1cc(NC(=O)N2C[C@](O)(C(F)(F)F)c3cc(F)ccc32)c2c(n1)C(=O)N[C@H]2c1cc(F)ccc1Cl (single isomer, unassigned) [Compound I-2690]	> 6.00	≥ 7.00
N#CCc1cc(NC(=O)N2C[C@](O)(C(F)(F)F)c3cc(F)ccc32)c2c(c1)C(=O)N[C@@H]2c1cc(F)ccc1Cl (single isomer, unassigned) [Compound I-2627]	> 6.00	≥ 7.00
N#Cc1cc(NC(=O)N2C[C@@](O)(C(F)(F)F)c3ccccc32)c2c(c1)C(=O)N[C@@H]2c1cc(F)ccc1Cl (single isomer, unassigned) [Compound I-2564]	> 6.00	≥ 7.00
O=C(Nc1cc(-c2cc3ncccc3[nH]2)cc2c1C(c1cc(F)ccc1Cl)NC2=O)c1cc(F)cc(C(F)(F)F)c1 (stereo not drawn) [Compound I-970]	> 6.00	≥ 7.00
O=C(Nc1cc(-c2nccs2)cc2c1C(c1cc(F)ccc1Cl)NC2=O)c1cc(F)cc(C(F)(F)F)c1 (stereo not drawn) [Compound I-921]	> 6.00	≥ 7.00
NCCc1cc(NC(=O)N2C[C@H](O)c3cc(F)ccc32)c2c(c1)C(=O)N[C@@H]2c1cc(F)ccc1Cl (single isomer, unassigned) [Compound I-2443]	4.44 to 5.00	≥ 7.00
O=C1N[C@H](c2cc(F)ccc2Cl)c2c(NC(=O)N3C[C@@](O)(C(F)(F)F)c4cc(F)ccc43)cc(N3CCCC3=O)cc21 (single isomer, unassigned) [Compound I-2665]	> 6.00	≥ 7.00
Cc1nn(C)cc1Nc1cc(NC(=O)c2cc(F)cc(C(F)(F)F)c2)c2c(c1)C(=O)NC2c1cc(F)ccc1Cl (stereo not drawn) [Compound I-924]	> 6.00	≥ 7.00
O=C1NC(c2cc(F)ccc2Cl)c2c(NC(=O)N3CC(C(F)F)c4ccccc43)cccc21 (mixture of isomers) [Compound I-2246]	5.30 to 6.00	≥ 7.00
COCc1cc(NC(=O)N2C[C@@](O)(C(F)(F)F)c3cc(F)ccc32)c2c(c1)C(=O)N[C@@H]2c1cc(F)ccc1Cl (single isomer, unassigned) [Compound I-2541]	> 6.00	≥ 7.00
CC(C)(O)c1cc(NC(=O)c2cc(F)cc(Cl)c2)c2c(c1)C(=O)N[C@H]2c1cc(F)ccc1Cl [Compound I-298]	> 6.00	≥ 7.00
CNc1nc2ccc(-c3cc(NC(=O)c4cc(F)cc(C(F)(F)F)c4)c4c(c3)C(=O)NC4c3cc(F)ccc3Cl)cn2n1 (stereo not drawn) [Compound I-2125]	> 6.00	≥ 7.00
CC(C)(O)c1cc(NC(=O)c2cc(F)cc(C(F)(F)F)c2)c2c(c1)C(=O)N[C@H]2c1cc(F)ccc1Cl [Compound I-189]	> 6.00	≥ 7.00
O=C(Nc1cc(-c2cn[nH]c2)nc2c1C(c1cc(F)ccc1Cl)NC2=O)c1cc(F)cc(C(F)(F)F)c1 (stereo not drawn) [Compound I-161]	5.30 to 6.00	≥ 7.00
O=C1NC(c2cc(F)ccc2Cl)c2c(NC(=O)N3CC(O)(C(F)F)c4ccccc43)cccc21 (mixture of isomers) [Compound I-2423]	5.30 to 6.00	≥ 7.00
O=C(Nc1cc(-c2ccc3nccnc3c2)cc2c1C(c1cc(F)ccc1Cl)NC2=O)c1cc(F)cc(C(F)(F)F)c1 (stereo not drawn) [Compound I-1012]	> 6.00	≥ 7.00
O=C(Nc1cccc2c1[C@H](c1cc(F)ccc1Cl)NC2=O)c1cc(F)cc(C(F)(F)F)c1 [Compound I-500]	> 6.00	≥ 7.00
Cc1nccn1-c1cc(NC(=O)N2C[C@@](O)(C(F)(F)F)c3cc(F)ccc32)c2c(c1)C(=O)N[C@@H]2c1cc(F)ccc1Cl (single isomer, unassigned) [Compound I-2661]	> 6.00	≥ 7.00
